Measured values: patent publication US12077503B2, “Substituted cyclic amides and their use as herbicides” (FMC CORPORATION, priority 2015, dated 2024)

Experiments:
Type in all cases: in vivo
corn (Zea mays) [1] = assay: Test G Post-Emergence Protocol; settings: Zea mays, post-emergence, 312 h, read-out: Corn damage rating; for plant injury at 15.625 g/ha: 15.625 g ai/ha, evaluated after 13 days (100=total damage to plant; 0=no damage to plant); for plant injury at 62.5 g/ha: 62.5 g ai/ha; for plant injury at 62.5 g/ha / plant injury at 250 g/ha: evaluated after 13 days, 100=total damage to plant, 0=no damage to plant; for plant injury at 250 g/ha: 250 g ai/ha
Summary of the method: (§1)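 Damage was rated 13 days after treatment from 0 (none) to 100 (plant killed). Compound was applied as a spray at 15.625, 62.5 or 250 g/ha in 50:50 acetone/water containing 0.5% Tween 20, onto 8-day-old potted plants kept in a glasshouse (24/16 °C, 14 h light, 65% humidity).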

[2] = system: barnyardgrass (Echinochloa crus-galli); assay: Test G Post-Emergence Protocol; settings: Echinochloa crus-galli, post-emergence, 312 h, read-out: Barnyardgrass damage rating; for pest or weed control at 15.625 g/ha: 15.625 g ai/ha, evaluated after 13 days (100=total damage to plant; 0=no damage to plant); for pest or weed control at 62.5 g/ha: 62.5 g ai/ha; for pest or weed control at 62.5 g/ha / pest or weed control at 250 g/ha: evaluated after 13 days, 100=total damage to plant, 0=no damage to plant; for pest or weed control at 250 g/ha: 250 g ai/ha
Summary of the method: as §1

[3] = system: redroot pigweed (Amaranthus retroflexus); assay: Test G Post-Emergence Protocol; settings: Amaranthus retroflexus, post-emergence, 312 h, read-out: Pigweed, Redroot damage rating; for pest or weed control at 15.625 g/ha: 15.625 g ai/ha, evaluated after 13 days (100=total damage to plant; 0=no damage to plant); for pest or weed control at 62.5 g/ha: 62.5 g ai/ha; for pest or weed control at 62.5 g/ha / pest or weed control at 250 g/ha: evaluated after 13 days, 100=total damage to plant, 0=no damage to plant; for pest or weed control at 250 g/ha: 250 g ai/ha
Summary of the method: as §1

[4] = system: ivy-leaved morning glory (Ipomoea hederacea); assay: Test G Post-Emergence Protocol; settings: Ipomoea, post-emergence, 312 h, read-out: Morningglory, Ivy-leaved damage rating; for pest or weed control at 15.625 g/ha: 15.625 g ai/ha, evaluated after 13 days (100=total damage to plant; 0=no damage to plant); for pest or weed control at 62.5 g/ha: 62.5 g ai/ha; for pest or weed control at 62.5 g/ha / pest or weed control at 250 g/ha: evaluated after 13 days, 100=total damage to plant, 0=no damage to plant; for pest or weed control at 250 g/ha: 250 g ai/ha
Summary of the method: as §1

[5] = system: giant foxtail (Setaria faberi); assay: Test G Post-Emergence Protocol; settings: Setaria faberi, post-emergence, 312 h, read-out: Foxtail, Giant damage rating; for pest or weed control at 15.625 g/ha: 15.625 g ai/ha, evaluated after 13 days (100=total damage to plant; 0=no damage to plant); for pest or weed control at 62.5 g/ha: 62.5 g ai/ha; for pest or weed control at 62.5 g/ha / pest or weed control at 250 g/ha: evaluated after 13 days, 100=total damage to plant, 0=no damage to plant; for pest or weed control at 250 g/ha: 250 g ai/ha
Summary of the method: as §1

[6] = system: velvetleaf (Abutilon theophrasti); assay: Test G Post-Emergence Protocol; settings: Abutilon theophrasti, post-emergence, 312 h, read-out: Velvetleaf damage rating; for pest or weed control at 15.625 g/ha: 15.625 g ai/ha, evaluated after 13 days (100=total damage to plant; 0=no damage to plant); for pest or weed control at 62.5 g/ha: 62.5 g ai/ha; for pest or weed control at 62.5 g/ha / pest or weed control at 250 g/ha: evaluated after 13 days, 100=total damage to plant, 0=no damage to plant; for pest or weed control at 250 g/ha: 250 g ai/ha
Summary of the method: as §1

corn (Zea mays) [7] = assay: Test G Pre-Emergence Protocol; settings: Zea mays, pre-emergence, 312 h, evaluated after 13 days; for plant injury at 15.625 g/ha: 15.625 g ai/ha; for plant injury at 15.625 g/ha / plant injury at 250 g/ha: read-out: Corn damage rating (100=total damage to plant; 0=no damage to plant); for plant injury at 62.5 g/ha: 62.5 g ai/ha, 100=total damage to plant, 0=no damage to plant, read-out: Corn damage rating; for plant injury at 250 g/ha: 250 g ai/ha
Summary of the method: (§2)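 Visual injury (0–100) at day 13 after a single pre-emergence spray. Rates: 15.625, 62.5, 250 g/ha in acetone–water 50:50 with 0.5% Tween 20. Growth conditions: 24/16° C, 14 h light, 65% humidity.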

[8] = system: barnyardgrass (Echinochloa crus-galli); assay: Test G Pre-Emergence Protocol; settings: Echinochloa crus-galli, pre-emergence, 312 h, evaluated after 13 days; for pest or weed control at 15.625 g/ha: 15.625 g ai/ha; for pest or weed control at 15.625 g/ha / pest or weed control at 250 g/ha: read-out: Barnyardgrass damage rating (100=total damage to plant; 0=no damage to plant); for pest or weed control at 62.5 g/ha: 62.5 g ai/ha, 100=total damage to plant, 0=no damage to plant, read-out: Barnyardgrass damage rating; for pest or weed control at 250 g/ha: 250 g ai/ha
Summary of the method: as §2

[9] = system: redroot pigweed (Amaranthus retroflexus); assay: Test G Pre-Emergence Protocol; settings: Amaranthus retroflexus, pre-emergence, 312 h, evaluated after 13 days; for pest or weed control at 15.625 g/ha: 15.625 g ai/ha; for pest or weed control at 15.625 g/ha / pest or weed control at 250 g/ha: read-out: Pigweed, Redroot damage rating (100=total damage to plant; 0=no damage to plant); for pest or weed control at 62.5 g/ha: 62.5 g ai/ha, 100=total damage to plant, 0=no damage to plant, read-out: Pigweed, Redroot damage rating; for pest or weed control at 250 g/ha: 250 g ai/ha
Summary of the method: as §2

[10] = system: ivy-leaved morning glory (Ipomoea hederacea); assay: Test G Pre-Emergence Protocol; settings: Ipomoea, pre-emergence, 312 h, evaluated after 13 days; for pest or weed control at 15.625 g/ha: 15.625 g ai/ha; for pest or weed control at 15.625 g/ha / pest or weed control at 250 g/ha: read-out: Morningglory, Ivy-leaved damage rating (100=total damage to plant; 0=no damage to plant); for pest or weed control at 62.5 g/ha: 62.5 g ai/ha, 100=total damage to plant, 0=no damage to plant, read-out: Morningglory, Ivy-leaved damage rating; for pest or weed control at 250 g/ha: 250 g ai/ha
Summary of the method: as §2

[11] = system: giant foxtail (Setaria faberi); assay: Test G Pre-Emergence Protocol; settings: Setaria faberi, pre-emergence, 312 h, evaluated after 13 days; for pest or weed control at 15.625 g/ha: 15.625 g ai/ha; for pest or weed control at 15.625 g/ha / pest or weed control at 250 g/ha: read-out: Foxtail, Giant damage rating (100=total damage to plant; 0=no damage to plant); for pest or weed control at 62.5 g/ha: 62.5 g ai/ha, 100=total damage to plant, 0=no damage to plant, read-out: Foxtail, Giant damage rating; for pest or weed control at 250 g/ha: 250 g ai/ha
Summary of the method: as §2

[12] = system: velvetleaf (Abutilon theophrasti); assay: Test G Pre-Emergence Protocol; settings: Abutilon theophrasti, pre-emergence, 312 h, evaluated after 13 days; for pest or weed control at 15.625 g/ha: 15.625 g ai/ha; for pest or weed control at 15.625 g/ha / pest or weed control at 250 g/ha: read-out: Velvetleaf damage rating (100=total damage to plant; 0=no damage to plant); for pest or weed control at 62.5 g/ha: 62.5 g ai/ha, 100=total damage to plant, 0=no damage to plant, read-out: Velvetleaf damage rating; for pest or weed control at 250 g/ha: 250 g ai/ha
Summary of the method: as §2

Structure (SMILES)	plant injury at 15.625 g/ha (corn (Zea mays) [1])	plant injury at 62.5 g/ha (corn (Zea mays) [1])	plant injury at 250 g/ha (corn (Zea mays) [1])	pest or weed control at 15.625 g/ha [2]	pest or weed control at 62.5 g/ha [2]	pest or weed control at 250 g/ha [2]	pest or weed control at 15.625 g/ha [3]	pest or weed control at 62.5 g/ha [3]	pest or weed control at 250 g/ha [3]	pest or weed control at 15.625 g/ha [4]	pest or weed control at 62.5 g/ha [4]	pest or weed control at 250 g/ha [4]	pest or weed control at 15.625 g/ha [5]	pest or weed control at 62.5 g/ha [5]	pest or weed control at 15.625 g/ha [6]	pest or weed control at 62.5 g/ha [6]	pest or weed control at 250 g/ha [6]	plant injury at 15.625 g/ha (corn (Zea mays) [7])	plant injury at 62.5 g/ha (corn (Zea mays) [7])	plant injury at 250 g/ha (corn (Zea mays) [7])	also measured
CN1C[C@H](c2cc(F)cc(F)c2)[C@@H](C(=O)Nc2cnccc2C(F)(F)F)C1=O (racemic) [Compound 1741]	0%	0%	0%	0%	0%	70%	0%	0%	0%	0%	30%	10%	50%	80%	0%	0%	10%	0%	10%	30%	pest or weed control at 15.625 g/ha [8]: 0%; pest or weed control at 62.5 g/ha [8]: 40%; pest or weed control at 250 g/ha [8]: 70%; pest or weed control at 15.625 g/ha [9]: 10%; pest or weed control at 62.5 g/ha [9]: 20%; pest or weed control at 250 g/ha [9]: 30%; pest or weed control at 15.625 g/ha [10]: 0%; pest or weed control at 62.5 g/ha [10]: 0%; pest or weed control at 250 g/ha [10]: 0%; pest or weed control at 15.625 g/ha [11]: 0%; pest or weed control at 62.5 g/ha [11]: 90%; pest or weed control at 250 g/ha [11]: 90%; pest or weed control at 15.625 g/ha [12]: 0%; pest or weed control at 62.5 g/ha [12]: 30%; pest or weed control at 250 g/ha [12]: 60%
CCOc1cc(C)cc(C2CN(C)C(=O)C2C(=O)Nc2cccc(F)c2F)c1 (centres unmarked) [Compound 1692]	20%	50%	80%	40%	70%	80%	0%	40%	40%	40%	30%	70%	60%	80%	0%	20%	30%	0%	60%	80%	pest or weed control at 250 g/ha [5]: 80%; pest or weed control at 15.625 g/ha [8]: 20%; pest or weed control at 62.5 g/ha [8]: 70%; pest or weed control at 250 g/ha [8]: 80%; pest or weed control at 15.625 g/ha [9]: 0%; pest or weed control at 62.5 g/ha [9]: 10%; pest or weed control at 250 g/ha [9]: 10%; pest or weed control at 15.625 g/ha [10]: 0%; pest or weed control at 62.5 g/ha [10]: 0%; pest or weed control at 250 g/ha [10]: 30%; pest or weed control at 15.625 g/ha [11]: 60%; pest or weed control at 62.5 g/ha [11]: 80%; pest or weed control at 250 g/ha [11]: 90%; pest or weed control at 15.625 g/ha [12]: 0%; pest or weed control at 62.5 g/ha [12]: 0%; pest or weed control at 250 g/ha [12]: 20%
CN1C[C@H](c2cccc(C(F)(F)F)c2)[C@@H](C(=O)Nc2ccc3cccnc3n2)C1=O (racemic) [Compound 1676]	0%	0%	0%	0%	0%	0%	0%	0%	0%	0%	0%	0%	0%	0%	0%	0%	0%	0%	0%	0%	pest or weed control at 250 g/ha [5]: 0%; pest or weed control at 15.625 g/ha [8]: 0%; pest or weed control at 62.5 g/ha [8]: 0%; pest or weed control at 250 g/ha [8]: 0%; pest or weed control at 15.625 g/ha [9]: 0%; pest or weed control at 62.5 g/ha [9]: 0%; pest or weed control at 250 g/ha [9]: 0%; pest or weed control at 15.625 g/ha [10]: 0%; pest or weed control at 62.5 g/ha [10]: 0%; pest or weed control at 250 g/ha [10]: 0%; pest or weed control at 15.625 g/ha [11]: 0%; pest or weed control at 62.5 g/ha [11]: 0%; pest or weed control at 250 g/ha [11]: 0%; pest or weed control at 15.625 g/ha [12]: 0%; pest or weed control at 62.5 g/ha [12]: 0%; pest or weed control at 250 g/ha [12]: 0%
